Reference: paper PMC9402538, “Rational design of a sensitivity-enhanced tracer for discovering efficient APC–Asef inhibitors” (Nature Communications, 2022)
Several values for one entry are separate records, joined by “and”; a condition that tells them apart may be missing. Equal entries are not always repeated. Where two headings read alike, the source gives them in different places. Where a SMILES comes first, the peptide text is derived from it. The star is where a group is joined. Adamantane1carbonyl = O=C(C12CC3CC(CC(C3)C1)C2)*; Thiophene2carbonyl = O=C(c1cccs1)*; Bz = O=C(c1ccccc1)*; X2 = O=C(c1cncs1)*

Experiments:
APC (303–739) = target: T1, APC (303–739) (Homo sapiens, UniProt P25054); assay: FP competitive assay using tracer 7; type: binding; details: for FP(mp): Tracer 7, replicate wells
T1 sequence (P25054 303-739): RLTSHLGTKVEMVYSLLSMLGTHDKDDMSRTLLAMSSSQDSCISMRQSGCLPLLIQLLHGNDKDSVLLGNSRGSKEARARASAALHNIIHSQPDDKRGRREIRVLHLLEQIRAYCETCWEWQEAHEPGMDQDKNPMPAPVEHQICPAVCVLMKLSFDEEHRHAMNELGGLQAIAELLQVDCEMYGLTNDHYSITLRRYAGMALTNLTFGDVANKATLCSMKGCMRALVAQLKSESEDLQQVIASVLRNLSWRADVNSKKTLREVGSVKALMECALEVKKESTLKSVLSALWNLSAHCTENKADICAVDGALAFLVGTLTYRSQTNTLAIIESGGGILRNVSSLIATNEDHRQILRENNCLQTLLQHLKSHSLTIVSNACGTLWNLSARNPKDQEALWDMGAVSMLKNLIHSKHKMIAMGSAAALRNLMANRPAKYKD
Method: (§1) FITC-labeled tracer peptides were obtained from Changzhou Kanglong Biotech Ltd. (Changzhou, Jiangsu, China). […]. The FP signal changes upon tracer binding were measured after 1.5 h of incubation using a Synergy neo microplate reader (BioTek Instruments, Inc.) and plotted against the protein concentration. The corresponding EC50 values were generated by fitting the curves with a nonlinear regression model. […]. To make a working solution, APC (303–739) was diluted in FP buffer (50 mM HEPES, pH 7.5, 300 mM NaCl, 1 mM EDTA, 1 mM DTT). The diluted APC protein (91 μL) was combined with a serial dilution of peptides (4 μL) and incubated at room temperature for 1 h, followed by the addition of 5 μL of 400 nM tracer 7. The FP signals were measured after 1.5 h of incubation at room temperature using a Synergy neo microplate reader. Three controls were included on each plate, i.e., blank (without protein and tracer), 100% inhibition (free tracer only), and 0% inhibition (protein/tracer complex only) controls. All experiments were performed in triplicate. The IC50 values of peptides were calculated by nonlinear regression analysis using GraphPad Prism 7.0 software.

APC = target: T2, APC (Homo sapiens, UniProt P25054); assay: FP competitive assay using tracer 1; type: binding; details: for FP(mp): Tracer 1, triplicate raw readings
T2 sequence (P25054 303-739): T1 sequence (P25054 303-739)
Method: In our previous study, we established an FP assay for screening APC–Asef inhibitors using FITC-labeled tracer 1 (Ac–^176[…][FITC]^195–NH2)[16]. […]. However, their Kd values measured by isothermal titration calorimetry (ITC) actually vary up to more than 20 times[16],[17]. […].
as §1, with “The diluted APC protein (91 μL) was combined with a serial dilution of peptides (4 μL) and incubated at room temperature for 1 h, followed by the addition of 5 μL of 400 nM tracer 7.” left out

[1] = Repeat 1, Table 3 source data, read-out: IC50(μM) Repeat 1
[2] = Repeat 2, Table 3 source data, read-out: IC50(μM) Repeat 2
[3] = Repeat 3, Table 3 source data, read-out: IC50(μM) Repeat 3
[4] = mean of 3 repeats, Table 3 source data, read-out: IC50(μM) mean
[5] = Supplementary Table 4, read-out: IC50, Tracer 1

FP(mp) (APC (303–739); Conc. 0.0061 μM) | FP(mp) (APC (303–739); Conc. 0.0122 μM) | FP(mp) (APC (303–739); Conc. 0.0244 μM) | FP(mp) (APC (303–739); Conc. 0.05 μM) | FP(mp) (APC (303–739); Conc. 0.10 μM) | FP(mp) (APC (303–739); Conc. 0.20 μM) | FP(mp) (APC (303–739); Conc. 0.39 μM) | FP(mp) (APC (303–739); Conc. 0.78 μM) | FP(mp) (APC (303–739); Conc. 1.56 μM) | FP(mp) (APC (303–739); Conc. 3.13 μM) | FP(mp) (APC (303–739); Conc. 6.25 μM) | FP(mp) (APC (303–739); Conc. 12.50 μM) | FP(mp) (APC (303–739); Conc. 25.00 μM) | FP(mp) (APC (303–739); Conc. 50.00 μM) | FP(mp) (APC; Conc. 0.05 μM) | FP(mp) (APC; Conc. 0.10 μM) | FP(mp) (APC; Conc. 0.20 μM) | FP(mp) (APC; Conc. 0.39 μM) | FP(mp) (APC; Conc. 0.78 μM) | FP(mp) (APC; Conc. 1.56 μM) | Compound | also measured
– | – | – | – | – | – | – | – | – | – | – | – | – | – | – | – | – | – | – | – | CC(C)C[C@H](NC(=O)[C@H](CO)NC(=O)[C@H](CCC(=O)O)NC(=O)CNC(=O)[C@H](C)NC(=O)c1ccccc1)C(=O)N[C@@H](Cc1ccc(O)cc1)C(N)=O [MAI-463] (Bz-AGESLY-NH2) | IC50 (APC (303–739); IC50, Tracer 7, Supplementary Table 4): 1.3 ± 0.05 µM; IC50 (APC): 730 ± 150 nM
310 mp and 307 mp and 309 mp | 303 mp and 302 mp and 307 mp | 307 mp and 305 mp and 308 mp | 302 mp and 304 mp and 307 mp | 294 mp and 293 mp and 295 mp | 282 mp (2×) and 276 mp | 256 mp and 254 mp and 252 mp | 224 mp and 222 mp and 229 mp | 180 mp and 186 mp and 189 mp | 136 mp and 134 mp and 137 mp | 106 mp (2×) and 108 mp | 85 mp and 86 mp and 89 mp | 67 mp and 68 mp and 71 mp | 57 mp and 60 mp and 59 mp | 181 mp | 177 mp and 182 mp and 179 mp | 161 mp and 172 mp and 174 mp | 139 mp and 163 mp and 161 mp | 68 mp and 100 mp and 109 mp | 56 mp and 64 mp and 68 mp | CC(C)C[C@H](NC(=O)[C@H](CO)NC(=O)[C@H](CCC(=O)O)NC(=O)CNC(=O)[C@H](C)NC(=O)C12CC3CC(CC(C3)C1)C2)C(=O)N[C@@H](Cc1ccc(O)cc1)C(=O)N[C@@H](CCC(=O)O)C(N)=O [MAI-505] (Adamantane1carbonyl-AGESLYE-NH2) | IC50 (APC (303–739); [1]): 1.57 µM; IC50 (APC (303–739); [2]): 1.73 µM; IC50 (APC (303–739); [3]): 1.57 µM; IC50 (APC (303–739); [4]): 1.62 µM; IC50 (APC; [5]): 440 ± 120 nM; FP(mp) (APC; Conc. 3.13 μM): 57 mp and 55 mp and 56 mp; FP(mp) (APC; Conc. 6.25 μM): 52 mp and 51 mp; FP(mp) (APC; Conc. 12.50 μM): 51 mp and 49 mp and 50 mp; FP(mp) (APC; Conc. 25.00 μM): 47 mp and 50 mp; FP(mp) (APC; Conc. 50.00 μM): 49 mp and 51 mp; FP(mp) (APC; Conc. 100.00 μM): 50 mp and 48 mp; FP(mp) (APC; Conc. 200.00 μM): 50 mp and 51 mp; FP(mp) (APC; Conc. 400.00 μM): 50 mp and 49 mp
306 mp | 306 mp and 305 mp and 307 mp | 290 mp (2×) and 289 mp | 268 mp and 265 mp and 269 mp | 236 mp and 233 mp (2×) | 190 mp and 195 mp and 192 mp | 150 mp and 147 mp and 149 mp | 113 mp (2×) and 114 mp | 85 mp and 90 mp and 86 mp | 73 mp and 71 mp and 74 mp | 65 mp and 60 mp and 61 mp | 61 mp and 56 mp and 59 mp | 52 mp and 55 mp and 57 mp | 58 mp and 50 mp and 54 mp | 185 mp and 183 mp and 179 mp | 180 mp and 181 mp and 176 mp | 173 mp and 176 mp | 162 mp and 161 mp | 105 mp and 98 mp and 106 mp | 54 mp and 56 mp | CC(C)C[C@H](NC(=O)[C@H](CO)NC(=O)[C@H](CCC(=O)O)NC(=O)CNC(=O)[C@H](C)NC(=O)c1cncs1)C(=O)N[C@@H](Cc1ccc(O)cc1)C(=O)N[C@@H](CCC(=O)O)C(N)=O [MAI-508] (X2-AGESLYE-NH2) | IC50 (APC (303–739); [1]): 0.221 µM; IC50 (APC (303–739); [2]): 0.194 µM; IC50 (APC (303–739); [3]): 0.241 µM; IC50 (APC (303–739); [4]): 0.219 µM; IC50 (APC; [5]): 480 ± 160 nM; FP(mp) (APC; Conc. 3.13 μM): 52 mp and 48 mp and 49 mp; FP(mp) (APC; Conc. 6.25 μM): 50 mp and 47 mp and 48 mp; FP(mp) (APC; Conc. 12.50 μM): 47 mp and 46 mp; FP(mp) (APC; Conc. 25.00 μM): 50 mp and 48 mp and 46 mp; FP(mp) (APC; Conc. 100.00 μM): 50 mp and 47 mp; FP(mp) (APC; Conc. 200.00 μM): 51 mp and 48 mp and 49 mp; FP(mp) (APC; Conc. 400.00 μM): 51 mp and 49 mp

Compound | FP(mp) (APC (303–739); Conc. 0.0061 μM) | FP(mp) (APC (303–739); Conc. 0.0122 μM) | FP(mp) (APC (303–739); Conc. 0.0244 μM) | FP(mp) (APC (303–739); Conc. 0.05 μM) | FP(mp) (APC (303–739); Conc. 0.10 μM) | FP(mp) (APC (303–739); Conc. 0.20 μM) | FP(mp) (APC (303–739); Conc. 0.39 μM) | FP(mp) (APC (303–739); Conc. 0.78 μM) | FP(mp) (APC (303–739); Conc. 1.56 μM) | FP(mp) (APC (303–739); Conc. 3.13 μM) | FP(mp) (APC (303–739); Conc. 6.25 μM) | FP(mp) (APC (303–739); Conc. 12.50 μM) | FP(mp) (APC (303–739); Conc. 25.00 μM) | FP(mp) (APC (303–739); Conc. 50.00 μM) | FP(mp) (APC; Conc. 0.05 μM) | FP(mp) (APC; Conc. 0.10 μM) | FP(mp) (APC; Conc. 0.20 μM) | FP(mp) (APC; Conc. 0.39 μM) | FP(mp) (APC; Conc. 0.78 μM) | FP(mp) (APC; Conc. 1.56 μM) | also measured
CC(C)C[C@H](NC(=O)[C@H](CO)NC(=O)[C@H](CCC(=O)O)NC(=O)CNC(=O)[C@H](C)NC(=O)c1cccs1)C(=O)N[C@@H](Cc1ccc(O)cc1)C(=O)N[C@@H](CCC(=O)O)C(N)=O [MAI-507] (Thiophene2carbonyl-AGESLYE-NH2) | 306 mp and 304 mp and 305 mp | 299 mp and 301 mp (2×) | 278 mp and 279 mp and 280 mp | 256 mp (2×) and 257 mp | 216 mp and 219 mp (2×) | 178 mp (2×) and 173 mp | 138 mp and 133 mp and 136 mp | 107 mp and 99 mp and 101 mp | 89 mp and 77 mp and 80 mp | 75 mp and 72 mp (2×) | 59 mp and 54 mp and 58 mp | 60 mp (2×) and 54 mp | 54 mp and 51 mp and 52 mp | 57 mp (2×) and 54 mp | 180 mp and 182 mp | 173 mp and 180 mp and 179 mp | 168 mp and 169 mp and 173 mp | 130 mp and 156 mp and 153 mp | 56 mp and 61 mp and 98 mp | 53 mp and 54 mp and 52 mp | IC50 (APC (303–739); IC50(μM) Repeat 1, Repeat 1, Table 3 source data): 0.173 µM; IC50 (APC (303–739); IC50(μM) Repeat 2, Repeat 2, Table 3 source data): 0.162 µM; IC50 (APC (303–739); IC50(μM) Repeat 3, Repeat 3, Table 3 source data): 0.175 µM; IC50 (APC (303–739); IC50(μM) mean, mean of 3 repeats, Table 3 source data): 0.17 µM; IC50 (APC (303–739); IC50 ± SD, tracer 7, APC 25 nM, average of three independent experiments): 0.17 ± 0.007 µM; IC50 (APC): 340 ± 120 nM; FP(mp) (APC; Conc. 3.13 μM): 53 mp and 50 mp and 52 mp; FP(mp) (APC; Conc. 6.25 μM): 50 mp and 51 mp; FP(mp) (APC; Conc. 12.50 μM): 50 mp and 47 mp and 48 mp; FP(mp) (APC; Conc. 25.00 μM): 51 mp and 47 mp and 48 mp; FP(mp) (APC; Conc. 50.00 μM): 49 mp and 47 mp and 48 mp; FP(mp) (APC; Conc. 100.00 μM): 48 mp and 47 mp; FP(mp) (APC; Conc. 200.00 μM): 48 mp; FP(mp) (APC; Conc. 400.00 μM): 49 mp and 48 mp
